This note sets out measurements from US11976083B2, “Inhibitors of peptidylarginine deiminases” (Gilead Sciences, Inc., priority 2020, dated 2024).

The term IC50 denotes the concentration that gives 50% inhibition.

The assay concerns the target T1, human PAD4 (Homo sapiens, UniProt Q9UM07).
T1 construct: human PAD4 (NM_012387), A2-P663, was PCR amplified; His-SUMO (N, cleaved yes); made in house; host or cells: E. coli BL21(DE3)
As to the kind of experiment: In vitro PAD4 BAEE biochemical assay. As to conditions: BAEE substrate 3 mM, 5 nM PAD4, 2 mM calcium chloride; geometric mean of multiple experiments. A digest of the protocol:
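PAD4 5 nM, CaCl2 2 mM, BAEE 3 mM final; 50 mM MOPS pH 7.6, 50 mM NaCl, 0.05% Tween-20, 2 mM DTT. Cpd + enzyme 30 min 25 °C; substrate 2 h 25 °C; EDTA stop; OPA detection 1 h. IC50 4-parameter fit.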

T1 sequence (Q9UM07 2-663): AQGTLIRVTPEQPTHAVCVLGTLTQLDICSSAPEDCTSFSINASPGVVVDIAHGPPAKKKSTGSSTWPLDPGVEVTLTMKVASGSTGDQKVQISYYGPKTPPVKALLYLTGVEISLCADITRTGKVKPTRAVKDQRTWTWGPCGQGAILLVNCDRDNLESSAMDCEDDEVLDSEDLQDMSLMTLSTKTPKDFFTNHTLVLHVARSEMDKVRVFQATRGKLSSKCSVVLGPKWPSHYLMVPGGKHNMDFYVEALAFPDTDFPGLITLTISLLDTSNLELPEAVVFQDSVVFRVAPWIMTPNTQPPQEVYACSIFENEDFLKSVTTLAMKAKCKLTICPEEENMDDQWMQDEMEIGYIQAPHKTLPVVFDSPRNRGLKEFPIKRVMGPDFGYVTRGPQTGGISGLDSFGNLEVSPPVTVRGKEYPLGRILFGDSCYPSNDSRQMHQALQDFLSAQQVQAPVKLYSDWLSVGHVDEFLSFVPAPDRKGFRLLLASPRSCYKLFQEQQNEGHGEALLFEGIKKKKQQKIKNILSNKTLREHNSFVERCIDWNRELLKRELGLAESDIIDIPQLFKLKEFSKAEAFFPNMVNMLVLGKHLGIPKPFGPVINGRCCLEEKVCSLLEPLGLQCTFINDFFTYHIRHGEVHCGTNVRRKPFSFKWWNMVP

Turning to `C[C@H]1NC(=O)[C@@H]2C[C@H]2CCCCCn2c(-c3nc4cc(C(=O)N[C@H]5CNCC[C@@H]5F)c(F)cc4n3[C@H]3C[C@@H]3C)cc3ccc1nc32` [Example 413, 6-fluoro-˜{N}-[(3˜{S},4˜{S})-4-fluoro-3-piperidyl]-1-[(1˜{S},2˜{S})-2-methylcyclopropyl]-2-[(2˜{R},5˜{R},7˜{R})-2-methyl-4-oxo-3,13,19-triazatetracyclo[11.5.2.0^{5,7}.0^{16,20}]icosa-1(19),14,16(20),17-tetraen-14-yl]benzimidazole-5-carboxamide], the IC50 was 37 nM.
Regarding `COCCn1c(-c2cc3ccc4nc3n2CCCCC[C@@H]2C[C@H]2C(=O)N[C@@H]4C)nc2cc(C(=O)N[C@H]3CNCC[C@@H]3F)c(F)c(F)c21` [Example 559, 6,7-difluoro-~{N}-[(3~{S},4~{S})-4-fluoro-3-piperidyl]-1-(2-methoxyethyl)-2-[(2~{R},5~{R},7~ {R})-2-methyl-4-oxo-3,13,19-triazatetracyclo [11.5.2.0^{5,7}.0^{16,20}]icosa-1(19),14,16(20), 17-tetraen-14-yl] benzimidazole-5-carboxamide], the IC50 was 47 nM.
The value for `COc1cc(C(=O)N2[C@H]3CC[C@@H]2[C@H](N)C3)cc2nc(-c3cc4ccc5nc4n3CC[C@H]3C[C@H]3COCCC(=O)N[C@@H]5C)n(C)c12` [Example 338, (4~{R},6~{R},13~{R})-19-[5-[(1~{R},2~{R},4~{S})-2-amino-7-azabicyclo[2.2.1]heptane-7-carbonyl]-7-methoxy-1-methyl-benzimidazol-2-yl]-13-methyl-8-oxa-1,12,21-triazatetracyclo[12.5.2.0^{4,6}.0^{17,20}] henicosa-14(21),15,17(20),18-tetraen-11-one] was 53 nM; that for `COc1cc(C(=O)N[C@H]2CNC[C@H]3C[C@H]32)cc2nc(-c3cc4ccc5nc4n3CCCCCCC(C)(C)C(=O)N[C@@H]5C)n(C)c12` [Example 203, ~{N}-[(1~{S},5~{R},6~{R})-3-azabicyclo[4.1.0]heptan-5-yl]-7-methoxy-1-methyl-2-[(11~{R})-8,8,11-trimethyl-9-oxo-1,10,19-triazatricyclo[10.5.2.0^{15,18}]nonadeca-12(19),13,15(18),16-tetraen-17-yl]benzimidazole-5-carboxamide] was 114 nM.
For `COc1cc(C(=O)N2CC[C@@H](OC)[C@@H](N)C2)cc2nc(-c3cc4ccc5nc4n3CCCCCC[C@]3(CCCO3)C(=O)N[C@@H]5C)n(C)c12` [Example 686, (8~{S},11~{R})-17-[5-[(3~{S},4~{R})-3-amino-4-methoxy-piperidine-1-carbonyl]-7-methoxy-1-methyl-benzimidazol-2-yl]-11-methyl-spiro[1,10,19-triazatricyclo [10.5.2.0^{15,18}]nonadeca-12(19),13,15(18),16-tetraene-8,2′-tetrahydrofuran]-9-one], the IC50 turned out to be 44 nM.
Consider `COc1cc(C(=O)N2CC[C@H]3OCCN[C@H]3C2)cc2nc(-c3cc4ccc5nc4n3C[C@H]3C[C@H]3COCCC(=O)N[C@@H]5C)n(C)c12` (single isomer, unassigned) [Example 245, (3˜{S},5˜{R},12˜{R})-18-[5-[(4˜{a}˜{S},8˜{a}˜{R})-2,3,4,4˜{a},5,7,8,8˜{a}-octahydropyrido[4,3-b][1,4]oxazine-6-carbonyl]-7-methoxy-1-methyl-benzimidazol-2-yl]-12-methyl-7-oxa-1,11,20-triazatetracyclo[11.5.2.0^{3,5}.0^{16,19}]icosa-13(20),14,16(19),17-tetraen-10-one], for which the IC50 came to 411 nM.
Take `COc1cc(C(=O)N2CC[C@@H](OC)[C@@H](N)C2)cc2nc(-c3cc4ccc5nc4n3CCCCCc3cnccc3C(=O)N[C@@H]5C)n(C)c12` [Example 358, (2~{R})-17-[5-[(3~{S},4~{R})-3-amino-4-methoxy-piperidine-1-carbonyl]-7-methoxy-1-methyl-benzimidazol-2-yl]-2-methyl-3,8,16,22-tetrazatetracyclo[14.5.2.0^{5,10}.0^{19,23}] tricosa-1(22),5,7,9,17,19(23),20-heptaen-4-one]: the IC50 was determined as 83 nM.
Turning to `C[C@H]1NC(=O)c2ccc(Cl)nc2CCCCCn2c(-c3nc4cc(C(=O)N5C[C@H](N)CC[C@@H]5C)cc(F)c4n3C3CC3)cc3ccc1nc32` [Example 807, (2~{R})-17-[5-[(2~{S},5~{R})-5-amino-2-methyl-piperidine-1-carbonyl]-1-cyclopropyl-7-fluoro-benzimidazol-2-yl]-8-chloro-2-methyl-3,9,16,22-tetrazatetracyclo[14.5.2.0^ {5,10}.0^{19,23}]tricosa-1(21),5(10),6,8,17,19,22-heptaen-4-one], the IC50 amounted to 31 nM.
As to `C[C@H]1NC(=O)[C@@H]2C[C@@]2(F)CCCCCn2c(-c3nc4cc(C(=O)N5C[C@H](N)[C@@H]6CC[C@H]5C6)cc(OC(F)(F)F)c4n3C)cc3ccc1nc32` [Example 715, (2~{R},5~{S},7~{S})-14-[5-[(1~{S},4~{R},5~{R})-4-amino-2-azabicyclo[3.2.1]octane-2-carbonyl]-1-methyl-7-(trifluoromethoxy)benzimidazol-2-yl]-7-fluoro-2-methyl-3,13,19-triazatetracyclo[11.5.2.0^ {5,7}.0^{16,20}]icosa-1(19), 14,16(20),17-tetraen-4-one], the IC50 is 19 nM.
The value for `COc1cc(C(=O)N2CC[C@@H](OC(F)F)[C@@H](N)C2)cc2nc(-c3cc4ccc5nc4n3CCCCC[C@@H]3C[C@H]3C(=O)N[C@@H]5C)n(C)c12` [Example 6, (2~{R),5~{R},7~{R})-14-[5-[(3~{S},4~{R})-3-amino-4-(difluoromethoxy)piperidine-1-carbonyl]-7-methoxy-1-methyl-benzimidazol-2-yl]-2-methyl-3,13,19-triazatetracyclo[11.5.2.0^{5,7}.0^{16,20}] icosa-1(19),14,16(20),17-tetraen-4-one] was 105 nM; that for `COc1cc(C(=O)N2CCC[C@@H](N)C2)cc2nc(-c3cc4ccc5cc4n3CCCCCOC(C)(C)C(=O)N[C@@H]5C)n(C)c12` [Example 156, (11~{R})-17-[5-[(3~{R})-3-aminopiperidine-1-carbonyl]-7-methoxy-1-methyl-benzimidazol-2-yl]-8,8,11-trimethyl-7-oxa-1,10-diazatricyclo[10.5.2.0^{15,18}]nonadeca-12(19),13,15(18),16-tetraen-9-one] was 56 nM.
In the case of `COc1cc(C(=O)N2C[C@H](N)[C@@H]3CC[C@H]2C3)cc2nc(-c3cc4ccc5nc4n3CCCCC[C@]3(F)C[C@@]3(C)C(=O)N[C@@H]5C)n(C)c12` [Example 916, (2~{R},5~{S},7~{S})-14-[5-[(1~{S},4~{R},5~{R})-4-amino-2-azabicyclo[3.2.1]octane-2-carbonyl]-7-methoxy-1-methyl-benzimidazol-2-yl]-7-fluoro-2,5-dimethyl-3,13,19-triazatetracyclo[11.5.2.0^ {5,7}.0^{16,20}]icosa-1(19),14,16(20),17-tetraen-4-one] it was 26 nM; in that of `COc1cc(C(=O)N2CC[C@@H](O)[C@@H](N)C2)cc2nc(-c3cc4ccc5nc4n3CCCCCc3cncc(F)c3C(=O)N[C@@H]5C)n(C)c12` [Example 660, (2~{R})-17-[5-[(3~{S},4~{R})-3-amino-4-hydroxy-piperidine-1-carbonyl]-7-methoxy-1-methyl-benzimidazol-2-yl]-6-fluoro-2-methyl-3,8,16,22-tetrazatetracyclo[14.5.2.0^ {5,10}.0^{19,23}] tricosa-1(22),5,7,9,17,19(23), 20-heptaen-4-one], 16 nM; in that of `COc1cc(C(=O)N2CC[C@@H](OC)[C@@H](N)C2)cc2nc(-c3cc4ccc5nc4n3CCCCCc3ccc(Cl)nc3C(=O)N[C@@H]5C)n(C)c12` [Example 780, (2~{R})-17-[5-[(3~{S},4~{R})-3-amino-4-methoxy-piperidine-1-carbonyl]-7-methoxy-1-methyl-benzimidazol-2-yl]-7-chloro-2-methyl-3,6,16,22-tetrazatetracyclo[14.5.2.0^ {5,10).0^{19,23}]tricosa-1(21),5(10),6,8,17,19,22-heptaen-4-one], 53 nM.
Turning to “(2~{R})-17-[5-[(1~{S}, 4~{R},5~{R})-4-amino-2- azabicyclo[3.2.1]octane-2- carbonyl]-1-cyclopropyl- 7-fluoro-benzimidazol-2-yl]- 6-(difluoromethyl)-2- methyl-3,7,16,22- tetrazatetracyclo[14.5.2.0^ {5,10}.0^{19,23}]tricosa- 1(22),5(10),6,8,17,19(23),20- heptaen-4-one [Example 718]”, the IC50 was 18 nM.
The value for `COc1cc(C(=O)N2CC[C@@H](OC)[C@@H](N)C2)cc2nc(-c3cc4ccc5nc4n3CC(F)(F)CCCCC3(CCC3)C(=O)N[C@@H]5C)n(C)c12` [Example 614, (11~{R})-17-[5-[(3~{S},4~ {R})-3-amino-4-methoxy-piperidine-1-carbonyl]-7-methoxy-1-methyl-benzimidazol-2-yl]-3,3-difluoro-11-methyl-spiro[1,10,19-triazatricyclo[10.5.2.0^ {15,18}]nonadeca-12,14,16,18-tetraene-8,1′-cyclobutane]-9-one] was 114 nM.
As to `COc1cc(C(=O)N2C[C@H](N)[C@@H]3CC[C@H]2C3)cc2nc(-c3cc4ccc5nc4n3CCCCCC[C@@](F)(c3ccccn3)C(=O)N[C@@H]5C)n(C)c12` [Example 884, (8~{R},11~{R})-17-[5-[(1~{S),4~{R},5~{R})-4-amino-2-azabicyclo[3.2.1]octane-2-carbonyl]-7-methoxy-1-methyl-benzimidazol-2-yl]-8-fluoro-11-methyl-8-(2-pyridyl)-1,10,19-triazatricyclo[10.5.2.0^ {15,18}]nonadeca-12(19), 13,15(18),16-tetraen-9-one], the 50% inhibitory concentration (IC50) is 24 nM.
